The molecules below were run on N. fowleri strain Nf69 (ATCC 30215) trophozoites (assay: Determination of EC50 values against Naegleria fowleri (growth inhibition, CellTiter Glo, 48 h)). Settings: ATCC30215, 48 h, read-out: EC50 uM against N. fowleri.
Format: cell-based
Summary of the method: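 Axenic Nf69 trophozoites in Nelson's complete medium with 10% FBS exposed to compound, initially 20–0.375 μM, for 48 h at 37 °C, 5% CO2. Viability read by CellTiter-Glo luminescence; % growth inhibition versus controls, triplicate averages fitted for EC50, with lower ranges used for very potent compounds.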

| Compound | EC50 |
| --- | --- |
| CN1CCC[C@H]2c3nc4ccc(Cl)cc4c(=O)n3CC[C@@H]21 [trans-10b-ent-2, (4aS,13bR)-10-chloro-4-methyl-1,2,3,4,4a,5,6,13b-octahydro-8H-[1,6]naphthyridino[5,6-b]quinazolin-8-one] | 1 to 10 µM |
| CN1CCC[C@H]2c3nc4cc(Cl)c(Cl)cc4c(=O)n3CC[C@@H]21 [trans-10f-ent-2, (4aS,13bR)-10,11-dichloro-4-methyl-1,2,3,4,4a,5,6,13b-octahydro-8H-[1,6]naphthyridino[5,6-b]quinazolin-8-one] | 1 to 10 µM |
| CC(C)OCCN1CCC[C@@H]2c3nc4cc(Cl)c(Cl)cc4c(=O)n3CC[C@H]21 (racemic) [trans-7z, (±)-(4aR,13bS)-10,11-dichloro-4-(2-isopropoxyethyl)-1,2,3,4,4a,5,6,13b-octahydro-8H-[1,6]naphthyridino[5,6-b]quinazolin-8-one] | 0.0001 to 0.1 µM |

Same assay, conditions: ATCC30215, N. fowleri Nf69 trophozoites, 48 h culture, 37° C., CellTiter Glo luminescence, read-out: EC50 uM against N. fowleri

| Compound | EC50 |
| --- | --- |
| CN1CCC[C@H]2c3nc4ccc(Cl)cc4c(=O)n3CC[C@H]21 (racemic) [cis-5d, (±)-(4aR,13bR)-10-chloro-4-methyl-1,2,3,4,4a,5,6,13b-octahydro-8H-[1,6]naphthyridino[5,6-b]quinazolin-8-one] | 1 to 10 µM |
| CN1CCC[C@H]2c3nc4ccccc4c(=O)n3CC[C@H]21 (racemic) [cis-5a, (±)-(4aR,13bR)-4-methyl-1,2,3,4,4a,5,6,13b-octahydro-8H-[1,6]naphthyridino[5,6-b]quinazolin-8-one] | > 10 µM |
| CN1CC[C@H]2c3nc4ccc(Cl)cc4c(=O)n3CC[C@H]21 (racemic) [cis-5hh, (±)-(3aR,12bR)-9-chloro-3-methyl-2,3,3a,4,5,12b-hexahydropyrrolo[3′,2′:3,4]pyrido[2,1-b]quinazolin-7(1H)-one] | > 10 µM |
| O=c1c2cc(Cl)c(Cl)cc2nc2n1CC[C@@H]1[C@@H]2CCCN1Cc1cccnc1 (racemic) [trans-7bb, (±)-(4aR,13bS)-10,11-dichloro-4-(pyridin-3-ylmethyl)-1,2,3,4,4a,5,6,13b-octahydro-8H-[1,6]naphthyridino[5,6-b]quinazolin-8-one] | 0.0001 to 0.1 µM |
| CC(C)N1CCC[C@@H](c2nc3cc(Cl)c(Cl)cc3c(=O)n2C)C1 [Compound R-14b, (R)-6,7-dichloro-2-(1-isopropylpiperidin-3-yl)-3-methylquinazolin-4(3H)-one] | > 10 µM |
| CC(=O)CN1CCC[C@@H]2c3nc4cc(Cl)c(Cl)cc4c(=O)n3CC[C@H]21 (racemic) [trans-7cc, (±)-(4aR,13bS)-10,11-dichloro-4-(2-oxopropyl)-1,2,3,4,4a,5,6,13b-octahydro-8H-[1,6]naphthyridino[5,6-b]quinazolin-8-one] | 0.0001 to 0.1 µM |
| Cc1ccc2nc3n(c(=O)c2c1)CC[C@@H]1[C@H]3CCCN1C (racemic) [cis-5h, (±)-(4aR,13bR)-4,10-dimethyl-1,2,3,4,4a,5,6,13b-octahydro-8H-[1,6]naphthyridino[5,6-b]quinazolin-8-one] | 1 to 10 µM |
| COc1cc2nc3n(c(=O)c2cc1Cl)CC[C@H]1[C@H]3CCCN1CC1COC1 (single isomer, unassigned) [trans-10j-ent-2] | 0.0001 to 0.1 µM |
| COc1cc2nc3n(c(=O)c2cc1Cl)CC[C@@H]1[C@@H]3CCCN1C (racemic) [trans-5gg, (±)-(4aR,13bS)-10-chloro-11-methoxy-4-methyl-1,2,3,4,4a,5,6,13b-octahydro-8H-[1,6]naphthyridino[5,6-b]quinazolin-8-one] | 0.1 to 1 µM |
| CN1CCC[C@@H]2c3nc4cc(F)ccc4c(=O)n3CC[C@H]21 (racemic) [trans-5m, (±)-(4aR,13bS)-11-fluoro-4-methyl-1,2,3,4,4a,5,6,13b-octahydro-8H-[1,6]naphthyridino[5,6-b]quinazolin-8-one] | > 10 µM |
| CC(C)N1CCC[C@H](c2nc3cc(Cl)c(Cl)cc3c(=O)n2C)C1 [Compound S-14a, (S)-6,7-dichloro-2-(1-isopropylpiperidin-3-yl)-3-methylquinazolin-4(3H)-one] | > 10 µM |
| Cn1c([C@@H]2CCN(CC3COC3)C2)nc2cc(Cl)c(Cl)cc2c1=O [Compound R-14j, (R)-6,7-dichloro-3-methyl-2-(1-(oxetan-3-ylmethyl)pyrrolidin-3-yl)quinazolin-4(3H)-one] | 1 to 10 µM |
| O=C(C1CCOCC1)N1CCC[C@@H]2c3nc4cc(Cl)c(Cl)cc4c(=O)n3CC[C@H]21 (racemic) [trans-7e, (±)-(4aR,13bS)-10,11-dichloro-4-(tetrahydro-2H-pyran-4-carbonyl)-1,2,3,4,4a,5,6,13b-octahydro-8H-[1,6]naphthyridino[5,6-b]quinazolin-8-one] | > 10 µM |
| CN1CCC[C@@H]2c3nc4cc(Br)ccc4c(=O)n3CC[C@H]21 (racemic) [trans-5l, (±)-(4aR,13bS)-11-bromo-4-methyl-1,2,3,4,4a,5,6,13b-octahydro-8H-[1,6]naphthyridino[5,6-b]quinazolin-8-one] | 1 to 10 µM |
| CC(C)CN1CCC[C@@H]2c3nc4cc(Cl)c(Cl)cc4c(=O)n3CC[C@H]21 (racemic) [trans-7l, (±)-(4aR,13bS)-10,11-dichloro-4-isobutyl-1,2,3,4,4a,5,6,13b-octahydro-8H-[1,6]naphthyridino[5,6-b]quinazolin-8-one] | 0.0001 to 0.1 µM |
| Cc1cccc(CN2CCC[C@@H]3c4nc5cc(Cl)c(Cl)cc5c(=O)n4CC[C@H]32)n1 (racemic) [trans-7p, (±)-(4aR,13bS)-10,11-dichloro-4-((6-methylpyridin-2-yl)methyl)-1,2,3,4,4a,5,6,13b-octahydro-8H-[1,6]naphthyridino[5,6-b]quinazolin-8-one] | 0.1 to 1 µM |

| Compound | EC50 |
| --- | --- |
| Cn1c([C@H]2CCCN(CC3COC3)C2)nc2cc(Cl)c(Cl)cc2c1=O [Compound S-14e, (S)-6,7-dichloro-3-methyl-2-(1-(oxetan-3-ylmethyl)piperidin-3-yl)quinazolin-4(3H)-one] | > 10 µM |
| O=c1c2cc(Cl)c(Cl)cc2nc2n1CC[C@@H]1[C@@H]2CCCN1CC1COC1 (racemic) [trans-7m, (±)-(4aR,13bS)-10,11-dichloro-4-(oxetan-3-ylmethyl)-1,2,3,4,4a,5,6,13b-octahydro-8H-[1,6]naphthyridino[5,6-b]quinazolin-8-one] | 0.0001 to 0.1 µM |
| COc1cccc2c(=O)n3c(nc12)[C@@H]1CCN(C)[C@@H]1CC3 (racemic) [cis-5dd, (±)-(3aR,12bR)-11-methoxy-3-methyl-2,3,3a,4,5,12b-hexahydropyrrolo[3′,2′:3,4]pyrido[2,1-b]quinazolin-7(1H)-one] | > 10 µM |
| CN1CCC[C@H]2c3nc4cc(Cl)ccc4c(=O)n3CC[C@H]21 (racemic) [cis-5k, (±)-(4aR,13bR)-11-chloro-4-methyl-1,2,3,4,4a,5,6,13b-octahydro-8H-[1,6]naphthyridino[5,6-b]quinazolin-8-one] | > 10 µM |
| CC(C)NCCN1CCC[C@@H]2c3nc4cc(Cl)c(Cl)cc4c(=O)n3CC[C@H]21 (racemic) [trans-7aa, (±)-(4aR,13bS)-10,11-dichloro-4-(2-(isopropylamino)ethyl)-1,2,3,4,4a,5,6,13b-octahydro-8H-[1,6]naphthyridino[5,6-b]quinazolin-8-one] | 0.1 to 1 µM |
| COc1ccc2nc([C@@H]3CCCN(CC4COC4)C3)n(C)c(=O)c2c1 [Compound R-14s, (R)-6-methoxy-3-methyl-2-(1-(oxetan-3-ylmethyl)piperidin-3-yl)quinazolin-4(3H)-one] | > 10 µM |
| COc1cc2nc3n(c(=O)c2cc1Cl)CC[C@@H]1[C@@H]3CCCN1CCOC(C)C (racemic) [trans-7ff, (±)-(4aR,13bS)-10-chloro-4-(2-isopropoxyethyl)-11-methoxy-1,2,3,4,4a,5,6,13b-octahydro-8H-[1,6]naphthyridino[5,6-b]quinazolin-8-one] | 0.1 to 1 µM |
| CN1CCC[C@H]2c3nc4cc(Cl)c(C(F)(F)F)cc4c(=O)n3CC[C@H]21 (racemic) [cis-5s, (±)-(4aR,13bR)-11-chloro-4-methyl-10-(trifluoromethyl)-1,2,3,4,4a,5,6,13b-octahydro-8H-[1,6]naphthyridino[5,6-b]quinazolin-8-one] | 0.1 to 1 µM |
| Cn1c([C@@H]2CCCN(CC3CCOCC3)C2)nc2cc(Cl)c(Cl)cc2c1=O [Compound R-14d, (R)-6,7-dichloro-3-methyl-2-(1-((tetrahydro-2H-pyran-4-yl)methyl)piperidin-3-yl)quinazolin-4(3H)-one] | > 10 µM |
| CN(C)C(=O)CN1CCC[C@@H]2c3nc4cc(Cl)c(Cl)cc4c(=O)n3CC[C@H]21 (racemic) [trans-7c, (±)-2-((4aR,13bS)-10,11-dichloro-8-oxo-2,3,5,6,8,13b-hexahydro-1H-[1,6]naphthyridino[5,6-b]quinazolin-4(4aH)-yl)-N,N-dimethylacetamide] | 0.1 to 1 µM |
| CN1CCC[C@H]2c3nc4cc(F)ccc4c(=O)n3CC[C@H]21 (racemic) [cis-5m, (±)-(4aR,13bR)-11-fluoro-4-methyl-1,2,3,4,4a,5,6,13b-octahydro-8H-[1,6]naphthyridino[5,6-b]quinazolin-8-one] | > 10 µM |
| CN1CCC[C@@H]2c3nc4cc(Cl)c(C(F)(F)F)cc4c(=O)n3CC[C@H]21 (racemic) [trans-5s, (±)-(4aR,13bS)-11-chloro-4-methyl-10-(trifluoromethyl)-1,2,3,4,4a,5,6,13b-octahydro-8H-[1,6]naphthyridino[5,6-b]quinazolin-8-one] | 0.1 to 1 µM |
| CN1CCC[C@H]2c3nc4ccc(Br)cc4c(=O)n3CC[C@H]21 (racemic) [cis-5e, (±)-(4aR,13bR)-10-bromo-4-methyl-1,2,3,4,4a,5,6,13b-octahydro-8H-[1,6]naphthyridino[5,6-b]quinazolin-8-one] | 0.1 to 1 µM |
| Cc1ccc(-c2ccc3nc4n(c(=O)c3c2)CC[C@@H]2[C@H]4CCCN2C)cn1 (racemic) [cis-9a] | > 10 µM |
| CN1CCC[C@@H]2c3nc4cc(Cl)c(Cl)cc4c(=O)n3CC[C@H]21 [trans-10e-ent-1, (4aR,13bS)-10,11-dichloro-4-methyl-1,2,3,4,4a,5,6,13b-octahydro-8H-[1,6]naphthyridino[5,6-b]quinazolin-8-one] | 0.0001 to 0.1 µM |

From patent publication US20250154152A1, “INHIBITORS OF NAEGLERIA FOWLERI” (Wisconsin Alumni Research Foundation, priority 2023, published 2025)
